Assay results published in patent US20120046317A1, “NOVEL HETEROCYCLIC COMPOUNDS” (priority 2009, published 2012).
Like-named read-outs stand apart in the source and are kept apart here. One block for each compound: values may come before it.

Legend:
[1] = test system: patients; details: phase 2 clinical studies; particularly in more severely affected patients; cited from earlier work
[2] = test system: AGE-LDL formation (Low density lipoprotein incubated with CuCl2); test: In vitro inhibition of AGE-LDL formation: LDL incubated with CuCl2, MDA-lysine adduct fluorescence; assay type: biochemical; details: LDL with CuCl2 at 37° C.
Method: In vitro Inhibition of AGE-LDL Formation:
Low density lipoprotein (LDL) was incubated with CuCl2 at 37° C. in phosphate buffered saline in the presence and absence of the following compounds. […] Results were expressed as % MDA-lysine adducts accumulation, considering the extent of the same formed upon incubation with CuCl2 alone as 100%.

[3] = rat, in vivo, po, 10 mg/kg
Method: (§1) Summary of Oral Pharmacokinetics of Reference Compound-T and Compound No. 100 in Wistar Rat:
(§2) Single dose pharmacokinetics of Reference compound-T (3-((2-(methylsulfonyl)hydrazino)carbonyl)-1-(2-oxo-2-thienylethyl)pyridinium chloride) and compound no. 100 was studied in male Wistar rat (280-300 gm, n=5) after oral administration at a dose of 10 mg/kg. Blood samples were obtained serially from jugular vein cannulated animals at selected time points and concentration of Reference compound-T and compound no. 100 in plasma was determined by LC-MS/MS. Non-compartmental pharmacokinetic analysis was performed using WinNonlin 5.2. […] 100.

[4] = male, dog, in vivo, po, 15 mg/kg
Method: (§3) Non-compartmental pharmacokinetic analysis was performed using WinNonlin 5.2.

[5] = in vivo; details: male, Wistar, rat, po, 10 mg/kg
Method: as §1, §2

[6] = in vivo; details: male, dog, po, 15 mg/kg
Method: as §3

[7] = test system: AGE-BSA Formation (Bovine Serum Albumin incubated with ribose); test: In vitro prevention of advanced glycation endproducts (AGEs) accumulation: BSA incubated with ribose, fluorescence; details: one week
Method: A reduction in fluorescence intensity in the presence of the test compound is an indication of its ability to prevent accumulation of advanced glycation endproducts.
Bovine Serum Albumin was incubated with ribose alone as well as with ribose and different concentrations of the following compounds under aseptic conditions for one week. At the end of the incubation period fluorescence intensity of the samples was measured at excitation and emission wavelengths of 355 nm and 460 nm respectively.

[8] = Single dose oral pharmacokinetics of Reference compound-T and compound no. 100 in dog; details: male dog, 15 mg/kg, administered compound in plasma, mean
Method: as §3

[9] = Single dose oral pharmacokinetics of Reference compound-T and compound no. 100 in Wistar rat; details: male Wistar rat, 10 mg/kg
Method: as §1, §2

[10] = test system: diabetic spontaneously hypertensive rats; details: cited from earlier work
[11] = test system: Ob-ZSF1 animal model; details: cited from earlier work
[12] = administered compound in plasma, mean

Compound: Cc1sc[n+](CC(=O)c2ccccc2)c1C [Alagebrium]
Effect on cardiac function and systolic blood pressure [1]: effective in improving cardiac function and uncontrolled systolic blood pressure

Absorption [3]: absorbed rapidly | Maximum plasma concentration of reference compound converted after administration of compound no. 100 in comparison to the administration of ref. compound [4]: ~3.6 times | AUC(0-t) [5]: 1410 ng·h/mL | Cmax [5]: 1350 ng/mL | AUC(0-t) [6]: 1780 ng·h/mL | Cmax [6]: 397 ng/mL | % Inhibition of AGE-BSA Formation ([7]; Conc. 1 mM): ++ (++ indicate 11-20%)
Compound: CS(=O)(=O)NNC(=O)C1=CN(CC(=O)c2cccs2)C=CC1 [Compound no. 100, N′-(methylsulfonyl)-1-[2-oxo-2-(thiophen-2-yl)ethyl]-1,4-dihydropyridine-3-carbohydrazide]
% Inhibition of AGE-LDL-formation ([2]; Conc. 250 uM): ++++ (++++ indicate >30%)

AUC(0-24 hr) [8]: 2477.0 ng·h/mL | Cmax [8]: 258.4 ng/mL | Absorption [9]: absorbed rapidly | AUC(0-8 hr) [9, 12]: 203.6 ng·h/mL | Cmax [9, 12]: 100.5 ng/mL
Compound: CS(=O)(=O)NNC(=O)c1ccc[n+](CC(=O)c2cccs2)c1.[Cl-] [Reference compound-T, 3-((2-(methylsulfonyl)hydrazino)carbonyl)-1-(2-oxo-2-thienylethyl)pyridinium chloride]

Compound: CS(=O)(=O)NNC(=O)c1ccc[n+](CC(=O)c2cccs2)c1.[Br-] [TRC4149]
Effect on endothelial and cardiac function [10]: preserved endothelial and cardiac function

% Inhibition of AGE-BSA Formation ([7]; Conc. 250 uM): + (+ indicate 0-10%)
Compound: COc1ccc(C(=O)CN2CCCC(C(=O)NNS(C)(=O)=O)C2)cc1 (stereo not drawn) [compound 163, 1-[2-(4-methoxyphenyl)-2-oxoethyl]-N′-(methylsulfonyl)piperidine-3-carbohydrazide]
% Inhibition of AGE-LDL-formation ([2]; Conc. 100 uM): + (+ indicate 0-10%)

Compound: CS(=O)(=O)NNC(=O)c1ccc[n+](CC(=O)c2cccs2)c1.[Cl-] [TRC4186]
Effect on diabetic cardiomyopathy and nephropathy [11]: preserved cardiac function and reduced the severity of renal dysfunction
